Legend:
[1] = tested on: pilocarpine-treated rats; assay: Focal pilocarpine-induced seizures after intrahippocampal pretreatment, behavior scored 0-6; type: in vivo, Sprague Dawley rats
Description: The method is similar to that described by Cavalheiro et al. (Cavalheiro E A, Czuzwar S J, Kleinrok S. Intracerebral cholinomimetics produce seizure-related brain damage in rats. Brit. J. Pharmacol. 1983; 79: 284P; incorporated herein by reference). Animals were anesthetized with pentobarbital (40 mg/kg) and an electrode-cannula guide (Plastic one, USA) was stereotactically implanted in the CA3 region of the dorsal hippocampus (lateral from midline 3.5 mm, posterior from bregma 3.8 mm, and 3.8 mm deep from skull; FIG. 35 in (Paxinos G, Watson C. The rat brain in stereotaxic coordinates, 4th edition. San Diego: Academic Press, 1998; incorporated herein by reference)). The electrode-cannula guide was fixed to skull using dental cement and skull screws. After surgery, a dummy cannula was placed into the guide cannula to prevent occlusion. One week later the rats received 30 μl of one anticonvulsant or control treatment (encapsulated or free) through the cannula using a microinfusion pump (Baxter, model AS40A) for 15 min at a rate of 0.12 ml/hr. Thirty minutes after completion of these treatments, 40 mM pilocarpine was infused for 50 min at a rate of 0.12 ml/hr. Subsequently, continuous EEGs were recorded from the electrode-cannulae, and the animals were videotaped for a minimum of two hours. […]

[2] = tested on: hippocampus of pilocarpine-treated rats; assay: Hippocampal histology two weeks after seizure induction (thionin cell loss score, Timm stain score); type: in vivo, Sprague Dawley rats; conditions: dosage 5 μg
Description: Two weeks after induction of seizure, animals were sacrificed and prepared for routine histology and Timm histochemistry. Following deep anesthesia with sodium pentobarbital (100 mg/kg), rats were perfused transcardially with 300 ml sodium sulfide medium (2.295 g Na2S, 2.975 g NaH2PO4/H2O in 500 ml H2O) followed by 300 ml 4% paraformaldehyd were postfixed in 4% paraformaldehyde for 24 h and then placed in a 30% sucrose solution until they sank to the bottom of the vial. Coronal sections through the entire extent of the hippocampus were cut at 40 μm on a freezing microtome and sections were stored in phosphate buffered saline. Every fourth section was stained for mossy fibers using Timm stain as follows. The sections were developed in the dark for 40-45 min in a solution of 50% Arabic gum (120 ml), 10 ml of citric acid (51 g/100 ml H2O), 10 ml sodium citrate (47 g/100 ml H2O), 3.47 g hydroquinone in 60ml, and 212.25 mg AgNO3. Following washing, the slides were dehydrated in alcohol, cleared in xylene, and mounted on slides with Permount (Fisher Scientific, Pittsburgh, Pa.). Timm staining was analyzed using a scoring system (0 to 5) for terminal sprouting in the CA3 and supragranular regions (Holmes G L, Gaiarsa J L, Chevassus-Au-Louis N, Ben-Ari Y. Consequences of neonatal seizures in the rat: morphological and behavioral effect. Ann. Neurol. 1998; 44: 845-857; Holmes G L, Sarkisian M, Ben-Ari Y, Chevassus-Au-Louis N. Mossy fiber sprouting following recurrent seizures during early development in rats. J. Comp. Neurol. 1999; 404: 537-553; each of which is incorporated herein by reference). […] Slides were analyzed for cell loss in the CA3, CA1 and hilar region using a semi-quantitative visual scoring system (0 to 5) (Mikati M A, Holmes G L, Chronopoulos A, et al. Phenobarbital modifies seizure-related brain injury in the developing brain. Ann. Neurol. 1994; 36: 425-433; incorporated herein by reference). Cell loss was assessed both ipsilateral and contralateral to the injection site. […]

NCc1cc(=O)[nH]o1 [free muscimol, Muscimol]
seizure activity as measured by behavior score, versus normal saline ([1]; 5 μg intrahippocampal prior to pilocarpine, 120 minute time course, n=4): reduces seizure activity | mortality ([1]; unencapsulated comparison groups to the 10 μg and 20 μg particle groups): high mortality | Timm scores CA3 region ([2]; n=4, mean ± SD): 1.48 ± 0.63 | Timm scores Supragranular ([2]; n=4, mean ± SD): 1.75 ± 0.28 | Total cell loss ([2]; n=4, thionin staining, mean ± SD): 6.27 ± 0.57

— US20050202093A1, “Prolonged suppression of electrical activity in excitable tissues” (priority 2002, published 2005)
